This passage reports Ki and IC50 results from US11142525B2 (Pfizer Inc., priority 2018, dated 2021).

Test [1] deals with human full-length recombinant HPK1 (Homo sapiens (Human), UniProt Q92918). Put plainly: HPK1 biochemical enzyme assay, microfluidic mobility shift assay (MSA). The note with it: HPK1 mobility shift assay; read-out: HPK1 Enzyme Assay_Ki.
The subject of test [2] is phospho-SLP-76 (Ser376) in Jurkat cells. The experiment in a line: Phospho-SLP-76 (Ser376) Homogeneous Time Resolved Fluorescence (HTRF) assay in Jurkat cells. The test is classed as cell-based. The note with it: Homo sapiens, Phospho-SLP-76 (Ser376) HTRF, anti-CD3 stimulation, read-out: SLP76 Assay_IC50. In short, it runs like this:
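Jurkat cells pre-treated 30 min with compounds (10 μM to 0.1 nM, 11-point, 0.1% DMSO), then stimulated with 200 μg/mL F(ab)2-complexed anti-CD3 (UCHT1) for 15 min at 37 °C. Lysate phospho-SLP-76 detected by HTRF after overnight antibody incubation; IC50 from four-parameter fit.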

Sequence of human full-length recombinant HPK1 (Q92918 whole entry): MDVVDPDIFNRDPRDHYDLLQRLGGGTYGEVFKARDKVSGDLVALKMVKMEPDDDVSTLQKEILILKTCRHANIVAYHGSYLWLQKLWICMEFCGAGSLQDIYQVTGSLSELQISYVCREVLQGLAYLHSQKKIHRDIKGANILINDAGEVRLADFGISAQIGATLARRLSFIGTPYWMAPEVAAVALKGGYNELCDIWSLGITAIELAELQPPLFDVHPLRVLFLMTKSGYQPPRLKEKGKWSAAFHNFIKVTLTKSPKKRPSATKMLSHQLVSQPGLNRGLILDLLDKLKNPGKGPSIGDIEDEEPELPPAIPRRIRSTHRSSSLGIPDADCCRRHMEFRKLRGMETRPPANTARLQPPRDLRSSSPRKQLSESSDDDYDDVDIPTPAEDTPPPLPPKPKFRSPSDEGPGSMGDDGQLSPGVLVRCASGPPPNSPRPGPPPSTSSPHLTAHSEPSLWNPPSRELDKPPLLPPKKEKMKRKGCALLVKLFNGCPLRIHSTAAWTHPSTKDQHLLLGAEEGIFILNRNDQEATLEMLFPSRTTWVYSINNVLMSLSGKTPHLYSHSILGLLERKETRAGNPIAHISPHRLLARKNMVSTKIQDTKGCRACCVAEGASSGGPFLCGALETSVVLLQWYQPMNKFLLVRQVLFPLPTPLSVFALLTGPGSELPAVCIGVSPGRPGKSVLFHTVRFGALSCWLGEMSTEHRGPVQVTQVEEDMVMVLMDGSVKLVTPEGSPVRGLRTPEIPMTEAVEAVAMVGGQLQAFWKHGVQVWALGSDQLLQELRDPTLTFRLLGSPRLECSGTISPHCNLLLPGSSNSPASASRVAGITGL

In the case of `C[C@H]1CCCN1c1cc2c(c(CN)n1)CN(c1cccc(N3C(=O)OC[C@@H]3C)n1)C2=O` [Example 132, 4-(aminomethyl)-2-{6-[(4S)-4-methyl-2-oxo-1,3-oxazolidin-3-yl]pyridin-2-yl}-6-[(2S)-2-methylpyrrolidin-1-yl]-2,3-dihydro-1H-pyrrolo[3,4-c]pyridin-1-one], in test [1], the Ki stood at 0.2 nM. Moreover, in test [2], the IC50 came to 67 nM.
Taken in the same sequence, the figures for `CCC(CC)n1c(C)nnc1-c1cccc(N2Cc3c(cc(N4CCC[C@@H]4C)nc3CNC)C2=O)n1` [Example 135, 4-[(methylamino)methyl]-2-{6-[5-methyl-4-(pentan-3-yl)-4H-1,2,4-triazol-3-yl]pyridin-2-yl}-6-[(2S)-2-methylpyrrolidin-1-yl]-2,3-dihydro-1H-pyrrolo[3,4-c]pyridin-1-one] were 0.8 nM and > 10000 nM.
For `CCCn1cnnc1-c1cccc(N2Cc3c(cc(N4[C@H](C)CC[C@H]4C)nc3CN)C2=O)n1` [Example 136, 4-(aminomethyl)-6-[(2R,5R)-2,5-dimethylpyrrolidin-1-yl]-2-[6-(4-propyl-4H-1,2,4-triazol-3-yl)pyridin-2-yl]-2,3-dihydro-1H-pyrrolo[3,4-c]pyridin-1-one], in test [1], the Ki was determined as 0.73 nM. The IC50 in test [2] worked out at 106 nM.
Taken in the same sequence, the figures for `C[C@@H]1CC[C@@H](C)N1c1cc2c(c(CN)n1)CN(c1cccc(N3C(=O)OC[C@@H]3C)n1)C2=O` [Example 137, 4-(aminomethyl)-6-[(2R,5R)-2,5-dimethylpyrrolidin-1-yl]-2-{6-[(4S)-4-methyl-2-oxo-1,3-oxazolidin-3-yl]pyridin-2-yl}-2,3-dihydro-1H-pyrrolo[3,4-c]pyridin-1-one] were 0.28 nM and 76 nM.
Taken in the same sequence, the figures for `CCC(CC)n1cnnc1-c1cccc(N2Cc3c(cc(N4CCC[C@@H]4C)nc3CNC)C2=O)n1` [Example 138, 4-[(methylamino)methyl]-6-[(2S)-2-methylpyrrolidin-1-yl]-2-{6-[4-(pentan-3-yl)-4H-1,2,4-triazol-3-yl]pyridin-2-yl}-2,3-dihydro-1H-pyrrolo[3,4-c]pyridin-1-one] were 0.09 nM and > 10000 nM.
Taken in the same sequence, the figures for `CC[C@@H](C)n1cnnc1-c1cccc(N2Cc3c(cc(C4(C)CC4)nc3CNC)C2=O)n1` [Example 139, 2-(6-{4-[(2R)-butan-2-yl]-4H-1,2,4-triazol-3-yl}pyridin-2-yl)-4-[(methylamino)methyl]-6-(1-methylcyclopropyl)-2,3-dihydro-1H-pyrrolo[3,4-c]pyridin-1-one] were 0.46 nM and 266 nM.
For the molecule `CCN(c1cc2c(c(CN)n1)CN(c1cccc(-c3nncs3)n1)C2=O)C(C)C` [Example 140, 4-(aminomethyl)-6-[ethyl(propan-2-yl)amino]-2-[6-(1,3,4-thiadiazol-2-yl)pyridin-2-yl]-2,3-dihydro-1H-pyrrolo[3,4-c]pyridin-1-one], in test [1], the Ki came to 2.07 nM. The IC50 in test [2] stood at 464 nM.
In the case of `CCN(c1cc2c(c(CN)n1)CN(c1cccc(-c3nncn3CC)n1)C2=O)C(C)C` [Example 141, 4-(aminomethyl)-6-[ethyl(propan-2-yl)amino]-2-[6-(4-ethyl-4H-1,2,4-triazol-3-yl)pyridin-2-yl]-2,3-dihydro-1H-pyrrolo[3,4-c]pyridin-1-one], the Ki in test [1] was 0.74 nM. In addition, the IC50 in test [2] was found to be 122 nM.
Taken in the same sequence, the figures for `CCC(CC)n1cnnc1-c1cccc(N2Cc3c(cc(C4CC4)nc3CNC)C2=O)n1` [Example 142, 6-cyclopropyl-4-[(methylamino)methyl]-2-{6-[4-(pentan-3-yl)-4H-1,2,4-triazol-3-yl]pyridin-2-yl}-2,3-dihydro-1H-pyrrolo[3,4-c]pyridin-1-one] were 0.52 nM and 239 nM.
Taken in the same sequence, the figures for `CCC(CC)n1cnnc1-c1cccc(N2Cc3c(cc(N4CCC[C@H]4C)nc3CN)C2=O)n1` [Example 143, 4-(aminomethyl)-6-[(2R)-2-methylpyrrolidin-1-yl]-2-{6-[4-(pentan-3-yl)-4H-1,2,4-triazol-3-yl]pyridin-2-yl}-2,3-dihydro-1H-pyrrolo[3,4-c]pyridin-1-one] were 0.09 nM and 28 nM.
Taken in the same sequence, the figures for `CCC(CC)n1cnnc1-c1cccc(N2Cc3c(cc(N4CCC[C@H]4C)nc3CNC)C2=O)n1` [Example 144, 4-[(methylamino)methyl]-6-[(2R)-2-methylpyrrolidin-1-yl]-2-{6-[4-(pentan-3-yl)-4H-1,2,4-triazol-3-yl]pyridin-2-yl}-2,3-dihydro-1H-pyrrolo[3,4-c]pyridin-1-one] were < 0.05 nM and 15 nM.
Turning to `CCN(c1cc2c(c(CN)n1)CN(c1cccc(-c3nncn3C(C)C)n1)C2=O)C(C)C` [Example 145, 4-(aminomethyl)-6-[ethyl(propan-2-yl)amino]-2-{6-[4-(propan-2-yl)-4H-1,2,4-triazol-3-yl]pyridin-2-yl}-2,3-dihydro-1H-pyrrolo[3,4-c]pyridin-1-one], the Ki in test [1] was 0.47 nM. Further, the IC50 in test [2] came out at 61 nM.
Taken in the same sequence, the figures for `CCCn1cnnc1-c1cccc(N2Cc3c(cc(N(CC)C(C)C)nc3CN)C2=O)n1` [Example 146, 4-(aminomethyl)-6-[ethyl(propan-2-yl)amino]-2-[6-(4-propyl-4H-1,2,4-triazol-3-yl)pyridin-2-yl]-2,3-dihydro-1H-pyrrolo[3,4-c]pyridin-1-one] were 0.91 nM and 106 nM.
Taken in the same sequence, the figures for `CCC(CC)n1cnnc1-c1cccc(N2Cc3c(cc(N(C)C(C)C)nc3CN)C2=O)n1` [Example 150] were 0.06 nM and 33 nM.
Taken in the same sequence, the figures for `CCC(CC)n1cnnc1-c1cccc(N2Cc3c(cc(N4CCCC4(C)C)nc3CN)C2=O)n1` [Example 151] were 0.1 nM and 14 nM.
For `CCC(CC)n1cnnc1-c1cccc(N2Cc3c(cc(N4CCC[C@@H]4C)nc3CN)C2=O)n1` [Example 152], the Ki in test [1] was determined as 0.12 nM. In addition, in test [2], the IC50 amounted to 46 nM.
Taken in the same sequence, the figures for `CCC(CC)n1cnnc1-c1cccc(N2Cc3c(cc(N(C)CC)nc3CN)C2=O)n1` [Example 153] were 0.14 nM and 65 nM.
Taken in the same sequence, the figures for `CCn1c(C)nnc1-c1cccc(N2Cc3c(cc(N4CCCC4(C)C)nc3CN)C2=O)n1` [Example 154] were 0.15 nM and 151 nM.
Taken in the same sequence, the figures for `CCCn1c(C)nnc1-c1cccc(N2Cc3c(cc(N4CCCC4(C)C)nc3CN)C2=O)n1` [Example 155] were 0.16 nM and 55 nM.
In the case of `Cc1nnc(-c2cccc(N3Cc4c(cc(N5CCC[C@H]5C)nc4CN)C3=O)n2)n1C(C)C` [Example 156], in test [1], the Ki came to 0.19 nM. The IC50 in test [2] was determined as 104 nM.
Taken in the same sequence, the figures for `CCn1c(C)nnc1-c1cccc(N2Cc3c(cc(N4CCC[C@@H]4C)nc3CN)C2=O)n1` [Example 157] were 0.23 nM and 85 nM.
Taken in the same sequence, the figures for `CCn1c(C)nnc1-c1cccc(N2Cc3c(cc(N(C)C(C)C)nc3CN)C2=O)n1` [Example 158] were 0.38 nM and 83 nM.
Taken in the same sequence, the figures for `CCN(C)c1cc2c(c(CN)n1)CN(c1cccc(-c3nnc(C)n3C(C)C)n1)C2=O` [Example 160] were 0.48 nM and 272 nM.
`CCCn1c(C)nnc1-c1cccc(N2Cc3c(cc(N(C)CC)nc3CN)C2=O)n1` [Example 161]: in test [1], the Ki is 0.68 nM. Moreover, the IC50 in test [2] turned out to be 217 nM.
Take `Cc1nnc(-c2cccc(N3Cc4c(cc(N5CCC[C@@H]5C)nc4CN)C3=O)n2)n1C(C)C` [Example 162]: in test [1], the Ki was found to be 0.76 nM. Moreover, the IC50 in test [2] was found to be 136 nM.
Taken in the same sequence, the figures for `CCN(CC)c1cc2c(c(CN)n1)CN(c1cccc(-c3nnc(C)n3CC)n1)C2=O` [Example 163] were 0.88 nM and 196 nM.
As to `Cc1nnc(-c2cccc(N3Cc4c(cc(N(C)C(C)C)nc4CN)C3=O)n2)n1C(C)C` [Example 165], the Ki in test [1] amounted to 0.28 nM. Besides, in test [2], the IC50 is 114 nM.
Taken in the same sequence, the figures for `CCC(CC)n1cnnc1-c1cccc(N2Cc3c(cc(N(CC)C(C)C)nc3CN)C2=O)n1` [Example 166] were 0.5 nM and 104 nM.
With `CCN(c1cc2c(c(CN)n1)CN(c1cccc(-c3nnc(C)n3CC)n1)C2=O)C(C)C` [Example 167], the Ki in test [1] was determined as 0.7 nM. The IC50 in test [2] came to 391 nM.
Consider `CCn1c(C)nnc1-c1cccc(N2Cc3c(cc(N4[C@H](C)CC[C@H]4C)nc3CN)C2=O)n1` [Example 168], for which the Ki in test [1] turned out to be 0.76 nM. Besides, the IC50 in test [2] turned out to be 300 nM.
Taken in the same sequence, the figures for `Cc1nnc(-c2cccc(N3Cc4c(cc(N5[C@H](C)CC[C@H]5C)nc4CN)C3=O)n2)n1C(C)C` [Example 169] were 0.95 nM and 179 nM.
On to `CCCn1c(C)nnc1-c1cccc(N2Cc3c(cc(N(CC)CC)nc3CN)C2=O)n1` [Example 170], for which, in test [1], the Ki turned out to be 0.36 nM. In addition, in test [2], the IC50 is 264 nM.
In the case of `CCN(C)c1cc2c(c(CN)n1)CN(c1cccc(-c3nnc(C)n3CC)n1)C2=O` [Example 171], in test [1], the Ki was found to be 0.34 nM. The IC50 in test [2] came out at 180 nM.
Taken in the same sequence, the figures for `CCCn1c(C)nnc1-c1cccc(N2Cc3c(cc(N(C)C(C)C)nc3CN)C2=O)n1` [Example 172] were 0.55 nM and 85 nM.
Taken in the same sequence, the figures for `CC[C@H](C)n1cnnc1-c1cccc(N2Cc3c(cc(N(C)CC)nc3CNC)C2=O)n1` [Example 173] were 0.06 nM and 43 nM.
As to `CN(C)c1cc2c(c(CN)n1)CN(c1cccc(N3C(=O)OC[C@@H]3CF)n1)C2=O` [Example 174], the Ki in test [1] came out at 0.37 nM. Also, the IC50 in test [2] is 207 nM.
Taken in the same sequence, the figures for `CCCn1c(CC)nnc1-c1cccc(N2Cc3c(cc(N4CCC[C@H]4C)nc3CNC)C2=O)n1` [Example 175] were 0.94 nM and 185 nM.
Taken in the same sequence, the figures for `CNCc1nc(N(C)C)cc2c1CN(c1cccc(-c3nncn3CC(C)C)n1)C2=O` [Example 177] were 0.26 nM and 152 nM.
